As usually defined, the IC50 is the concentration at which inhibition is half-maximal.

The text below walks through data of ChEMBL document CHEMBL1150051, “Antiviral (RNA) activity of selected Amaryllidaceae isoquinoline constituents and synthesis of related substances” (J Nat Prod, 1992).

In brackets after ≈: the same amount, converted by molar mass.

The nature of series [1]: Therapeutic index, ratio of TC50 for african green monkey Vero cells to IC50 for Sandfly fever sicilian virus. It is filed as cell-based. The conditions noted are these: read-out: TI.
Series [2] can be described thus: Therapeutic index, ratio of TC50 for african green monkey Vero cells to IC50 for Dengue type 4 virus. The format is cell-based. The conditions noted are these: read-out: TI.
Another series deals with Punta Toro virus. As to the kind of experiment: Antiviral activity against Punta Toro virus Adames infected in african green monkey Vero cells assessed as inhibition of virus-induced cytopathic effect by MTT assay. It is filed as functional, organism-based. The note with it: Punta Toro virus, Adames, Vero; read-out: IC50. A general note: Cytopathic effects are the visible damage that an infection or toxin causes in cultured cells.

Series [3] is described as follows: Therapeutic index, ratio of TC50 for african green monkey Vero cells to IC50 for Japanese encephalitis virus Nakayama. The conditions noted are these: read-out: TI. The format is cell-based.
A further series concerns Yellow fever virus. Nature of the series: Antiviral activity against Yellow fever virus Ashibi infected in african green monkey Vero cells assessed as inhibition of virus-induced cytopathic effect by MTT assay. The format is functional, organism-based. The note with it: Yellow fever virus, Ashibi, Vero; read-out: IC50.
The next series relates to dengue virus type 4. As to the kind of experiment: Antiviral activity against Dengue virus type 4 infected in african green monkey Vero cells after 6 days by plaque reduction assay. It is filed as functional, organism-based. The note with it: Dengue virus, Vero, 144 h; read-out: IC50.
The nature of series [4]: Therapeutic index, ratio of TC50 for african green monkey Vero cells to IC50 for Yellow fever virus Ashibi. The format is cell-based. The conditions noted are these: read-out: TI.
Series [5] concerns Japanese encephalitis virus. As to the kind of experiment: Antiviral activity against Japanese encephalitis virus Nakayama infected in african green monkey Vero cells assessed as inhibition of virus-induced cytopathic effect by MTT assay. The format is functional, organism-based. The note with it: Japanese encephalitis virus, Nakayama, Vero; read-out: IC50.
The subject of a further series is Rift Valley fever virus. Nature of the series: Antiviral activity against Rift Valley fever virus infected in african green monkey Vero cells after 6 days by plaque reduction assay. The format is functional, organism-based. The conditions noted are these: Rift Valley fever virus, Vero, 144 h; read-out: IC50.
For series [6], the system named is Sandfly fever Sicilian virus. Nature of the series: Antiviral activity against Sandfly fever sicilian virus infected in african green monkey Vero cells assessed as inhibition of virus-induced cytopathic effect by MTT assay. It is filed as functional, organism-based. The conditions noted are these: sandfly fever Sicilian virus, Vero; read-out: IC50.
Series [7] in a line: Therapeutic index, ratio of TC50 for african green monkey Vero cells to IC50 for Rift valley fever virus. The conditions noted are these: read-out: TI. It is filed as cell-based.
Series [8] is described as follows: Therapeutic index, ratio of TC50 for african green monkey Vero cells to IC50 for Punta toro virus Adames. It is filed as cell-based. The note with it: read-out: TI.

Take `O=C1N[C@@H]2C(=C[C@H](O)[C@@H](O)[C@H]2O)c2cc3c(cc21)OCO3`: the selectivity ratio was found to be 4.5 in series [1]; 4.2 in [2]; 4.9 in series [3]; 5.6 in series [4]; 5.5 in series [7]; 6.3 in series [8]. In addition, the IC50 was 0.042 µg/mL (≈ 0.144 µM) with Punta Toro virus; 0.053 µg/mL (≈ 0.182 µM) with Yellow fever virus; 0.059 µg/mL (≈ 0.203 µM) in the series on dengue virus type 4; 0.056 µg/mL (≈ 0.192 µM) in [5]; 0.15 µg/mL (≈ 0.515 µM) in the series with Rift Valley fever virus; 0.058 µg/mL (≈ 0.199 µM) in series [6].
